Results as given in US20070105162A1, “Monovalent avidin and streptavidin compositions” (Massachusetts Institute of Technology, priority 2005, published 2007).

Key:
[1] = Electrospray ionization mass spectrometry: biotin molecules bound per streptavidin tetramer; format: binding
Experimental: Biospin columns (Bio-Rad) were equilibrated by spinning 5 times in 500 μL of 15 mM ammonium acetate pH 7.8 at 1000 g for 2 min. Then 30-50 μL of 30 μM protein in PBS was buffer-exchanged into 15 mM ammonium acetate pH 7.8 using the pre-equilibrated Biospin columns by spinning for 20 s at 1000 g. To ensure that PBS was completely removed, the flow-through was again buffer-exchanged with a second pre-equilibrated column for 20 s. This procedure also removed free biotin when the starting 30 μM streptavidin forms were incubated with 200 μM biotin. Less than 2 min before introducing into the mass spectrometer, the buffer-exchanged samples were diluted with a solution of 1:1 15 mM ammonium acetate pH 7.8 and 78% acetonitrile, 0.01% trifluoroacetic acid.
(§1) An Advion nanospray robot (Advion BioSystems, Ithica, N.Y.) with a back-pressure of 0.45 Psi introduced the samples into the mass spectrometer, an 8.5 Tesla custom-built Electrospray Ionisation-Fourier Transform Mass Spectrometer. To visualize the non-covalent tetramers and non-covalent biotin binding in the high m/z range, the following settings were used: Chirp rate=750 Hz, Amplitude=0.5 V p-p, Tube lens=200 V, Capillary heater 2 V, Quad filter=−20 V, Skimmer=0 V, Capillary offset=34 V, X-fer=−110 V, Leak gas=4.2×10^−5 Torr. The capillary heater was kept low and the Quad filter and Skimmer were kept either high or off to prevent subunit dissociation. The transfer was set to this low value of −110 V in order to visualize the high m/z region.
The masses were calculated manually by first determining the charge state. The final mass was determined by multiplying the observed m/z by the charge and subtracting the mass corresponding to the addition of protons to give that charge. For example, for the 15+charge state of D4 an m/z of 3534.159 was obtained. (15×3534.159)-(15×1.00727) gave a mass for this ion of 52,997 Da. This calculation was repeated for each charge state and the mean and standard deviation reported. The spectra were calibrated with tetrameric streptavidin, after its monomer mass was determined under denaturing conditions (Mr=13,271.4 Da). Average masses were predicted from the DNA sequence, using the ExPASy PeptideMass Calculator (ca.expasy.org/tools/peptide-mass.html) and assuming removal of the N-terminal formyl-Methionine.
The different tetramers were purified using a Ni-nitrilotriacetic acid (NTA) column, eluting according to the number of His6-tags with increasing concentrations of imidazole. […] The tetramer composition was further confirmed by boiling the samples before loading on SDS-PAGE, to determine the ratio of A to D subunits (FIG. 1D), and by electrospray ionization mass spectrometry. In Table 1 (Schwartz, B. L. et al., J. of the Amer. Soc. for Mass Spec. 6: 459-465, 1995) the observed mass (±s.d.), determined by Electrospray Ionization-Mass Spectrometry, is compared to the mass predicted from the sequence. From the change (±s.e.m.) upon addition of biotin (mass 244.31), we determined how many biotin molecules were bound to each tetramer.
Electrospray ionization mass spectrometry was used to characterize the number of biotin molecules bound per tetramer. Spectra of the different streptavidin tetramers with or without biotin were acquired. […] The other chimeric tetramers bound one biotin per A subunit.

[2] = Electrospray ionization mass spectrometry: biotin molecules bound per avidin tetramer; format: binding; conditions: spectra with or without biotin
Experimental: Biospin columns (Bio-Rad) are equilibrated by spinning 5 times in 500 μL of 15 mM ammonium acetate pH 7.8 at 1000 g for 2 min. Then 30-50 μL of 30 μM protein in PBS is buffer-exchanged into 15 mM ammonium acetate pH 7.8 using the pre-equilibrated Biospin columns by spinning for 20 s at 1000 g. To ensure that PBS is completely removed, the flow-through is again buffer-exchanged with a second pre-equilibrated column for 20 s. This procedure also removes free biotin when the starting 30 μM avidin forms are incubated with 200 μM biotin. Less than 2 min before introducing into the mass spectrometer, the buffer-exchanged samples are diluted with a solution of 1:1 15 mM ammonium acetate pH 7.8 and 78% acetonitrile, 0.01% trifluoroacetic acid.
as §1, with “introduces” for “introduced”, “are” for “were”, “is” for “was”
The masses are calculated manually by first determining the charge state. The final mass is determined by multiplying the observed m/z by the charge and subtracting the mass corresponding to the addition of protons to give that charge. This calculation is repeated for each charge state and the mean and standard deviation reported. The spectra are calibrated with tetrameric avidin, after its monomer mass is determined under denaturing conditions. […]

[3] = system: biotinylated AP-CFP-TM on HeLa cells; experiment: Staining of biotinylated AP-CFP-TM on HeLa with Alexa Fluor 568-conjugated streptavidins; format: cell-based; conditions: Alexa Fluor 568 conjugate 10 μg/mL, 10 min at 4° C.
Experimental: Enzymatic biotinylation and imaging of HeLa transfectants were performed as previously described (Howarth, M. et al., Proc. Natl. Acad. Sci. USA 102: 7583-7588, 2005), except instead of 10 μM biotin and 1 mM ATP, we added 10 μM biotin-AMP (synthesized according to Coleman and Huang; Coleman, T. M. and Huang, F. Chem. Biol. 9: 1227-1236, 2002) to give equivalent biotinylation but minimizing the risk of purinoreceptor activation by ATP (Rathbone, M. P. et al., Prog. Neurobiol. 59: 663-690, 1999). […] Biotinylation of neurons was performed at day in vitro (DIV) 8 in Hanks' Balanced Salt Solution (HBSS) (Invitrogen) with 0.2 μM biotin ligase and 10 μM biotin-AMP for 5 min at 37° C. […] Neurons were washed with NeuroBasal media (Invitrogen) supplemented with B-27 (Invitrogen), 50 U/mL penicillin, 50 μg/mL streptomycin, and 0.2 mM L-glutamine and chased in the same medium for 0 or 2 hr at 37° C. Cells were then fixed in −20° C. methanol. […]
Images of HeLa cells were collected on a Zeiss Axiovert 200M inverted epifluorescence microscope using a 40× oil-immersion lens and a MicroMAX CCD camera (Roper Scientific; Tucson, Ariz.). CFP (420DF20 excitation, 450DRLP dichroic, 475DF40 emission) and Alexa568 (560DF20 excitation, 585DRLP dichroic, 605DF30 emission) images were collected and analyzed using OpenLab software (Improvision; Lexington, Mass.). Fluorescence images were background-corrected. […] Images were scaled to 16 bits and analyzed in Northern Eclipse (Empix Imaging; Ontario, Canada) with user-written software. […] Results were then calculated in terms of clusters per micrometer of dendrite. For assessment of pre-synaptic terminals, clusters were determined as before and average grey levels of clusters were compared between transfected dendrites and untransfected dendrites within the same field of view. […] “n” represents the number of transfected neurons for which clusters were measured. […]

[4] = Off-rate of 3H-biotin from streptavidin (cold biotin chase); format: binding; conditions: 50 μM cold biotin chase, 5 hours at 37° C., ± s.e.m.
Experimental: (Green, N. M. Methods in Enzymol. 184: 51-67, 1990). Dissociation was then initiated by addition of cold biotin at a final concentration of 50 μM and time-points taken over 5 hours at 37° C. 50 μL aliquots were removed and added to 200 μL 0.2M ZnSO4 chilled on ice, followed by 200 μL 0.2 M NaOH. The protein precipitate was pelleted by centrifugation at 16,500 g for 5 min, and ^3H-biotin in the supernatant was measured by liquid scintillation counting. Data were plotted as ln(fraction bound) versus time, and fit to a straight line by linear regression. Dissociation rates were deduced from the slope of the line and the equation: ln(fraction bound)=−koff(t) where fraction bound=(total ^3H-biotin−free ^3H-biotin at timepoint)/(total ^3H-biotin−free ^3H-biotin before cold biotin chase).

[5] = system: biotinylated AP-neuroligin-1 on hippocampal neurons; experiment: AP-neuroligin-1 clustering in hippocampal neurons labeled with streptavidin; format: cell-based, rat; conditions: two hour incubation at 37° C., Alexa Fluor 568 conjugate; ± s.e.m., n=9
Experimental: HeLa cells were grown in Dulbecco's Modified Eagle Medium (DMEM) with 10% Fetal Calf Serum, 50 U/mL penicillin and 50 μg/mL streptomycin. HeLa stably expressing AP-CFP-TM or Ala-CFP-TM have been previously described (Howarth, M. et al., Proc. Natl. Acad. Sci. USA 102: 7583-7588, 2005). Dissociated primary neuronal cultures were prepared from Embryonic Day 18 or 19 (E18/19) rats and transfected with Lipofectamine 2000 at DIV6 as in Levinson et al. (Levinson, J. N. et al., J. Biol. Chem. 280: 17312-17319, 2005). […]
Images of HeLa cells were collected on a Zeiss Axiovert 200M inverted epifluorescence microscope using a 40× oil-immersion lens and a MicroMAX CCD camera (Roper Scientific; Tucson, Ariz.). CFP (420DF20 excitation, 450DRLP dichroic, 475DF40 emission) and Alexa568 (560DF20 excitation, 585DRLP dichroic, 605DF30 emission) images were collected and analyzed using OpenLab software (Improvision; Lexington, Mass.). Fluorescence images were background-corrected. […] Images were scaled to 16 bits and analyzed in Northern Eclipse (Empix Imaging; Ontario, Canada) with user-written software. […] Results were then calculated in terms of clusters per micrometer of dendrite. For assessment of pre-synaptic terminals, clusters were determined as before and average grey levels of clusters were compared between transfected dendrites and untransfected dendrites within the same field of view. […]

Substance	# biotins (bound to each tetramer) ([1]; from mass change upon addition of biotin, 30 μM protein, 200 μM biotin)	biotin binding per tetramer by mass spectrometry (in words) ([1]; spectra with or without biotin)	biotin binding per avidin tetramer by mass spectrometry (in words) [2]	Alexa staining of biotinylated AP-CFP-TM [3]	off-rate from biotin [4]	AP-neuroligin-1 clusters per micrometer of dendrite [5]
A4: Wild-type streptavidin with a His6-tag, four Alive subunits (SEQ ID NO:4) [Tetramer A4]	4	all four subunits	all four subunits			
wild-type streptavidin: Wild-type core streptavidin tetramer with 4 biotin binding sites (SEQ ID NO:2) [reference compound]				detected equally well	5.17±0.25×10^−5 s^−1	0.266±0.011 clusters/μm
